Experiments:
subjects with MDD [1] = test: Treatment-emergent adverse events, full safety analysis set; format: in vivo, human
subjects with MDD [2] = test: SHAPS total score (anhedonia), same study; format: in vivo, human; conditions: for SHAPS Total Score Change from Baseline LSMean Difference (SE) Treatment-Placebo: MMRM
Description: To assess a potential effect on anhedonia, an anhedonia scale may be used. For example, the Snaith-Hamilton Pleasure Scale (SHAPS) analysis is a validated scale for the measurement of anhedonia. The SHAPS is a subject completed scale in which subjects score whether or not they experience pleasure in performing a list of activities or experiences. The SHAPS is a self-reported 14-item instrument, developed for the assessment of hedonic capacity. Subjects score whether they experience pleasure in performing a list of activities or experiences. Subjects can rate the answers as 1˜4 where 1 indicates “Definitely agree”, 2 indicates “Agree”, 3 indicates “Disagree” and 4 indicates “Definitely disagree”. The subject's item responses are summed to provide a total score ranging from 14 to 56. A higher total SHAPS score indicates higher levels of current anhedonia. Physician/clinical judgment can be used to assess anhedonia separately or in conjunction with an anhedonia scale.
In some embodiments, the patient has moderate anhedonia. In other embodiments, the patient has severe anhedonia. An assessment of moderate or severe anhedonia is typically determined physician/clinical judgment and/or by one or more tests that provide insight into whether a patient has anhedonia. For example, the severity of the anhedonia may be determined using the SHAPS method. In some embodiments, a patient with moderate or severe anhedonia is considered to have a high level of anhedonia. For example, a patient with a SHAPS score of 38 or greater is considered to have moderate to severe anhedonia that can be considered a high level of anhedonia. In some embodiments, a high level of anhedonia is reflected by a SHAPS score of at least about 40, about 42, about 44, about 46, about 48, about 50, about 52, about 54, about 56, […]. A patient with mild or no anhedonia would be considered to have a low level of anhedonia that is assessed by physician/clinical judgment and/or one or more tests. For example, a patient with a SHAPS score of less than 38 is considered to have low anhedonia. In certain embodiments, a patient with mild anhedonia may have a SHAPS score of 20 to less than 38, for example, a SHAPS score of 20 to about 36, about 22 to about 36, about 24 to about 36, about 26 to about 36, about 26 to about 34, about 26 to about 32, about 26 to about 30, about 26 to about 28, about 28 to about 36, about 28 to about 36, about 30, to about 36, about 32 to about 36, about 34 to about 36, about 20 to about 34, about 22 to about 34, about 24 to about 34, about 26 to about 32, about 26 to about 30, about 26 to about 28, about 28 to about 36, about 28 to about 34, about 28 to about 32, about 28 to about 30, about 30 to about 36, about 30 to about 34, about 30 to about 32, about 32 to about 36, about 32 to about 34, or about 34 to about 36. Typically, a SHAPS score of less than 20 can be considered to correspond to normal hedonic functioning, and for purposes of this disclosure, would fall into the low category of anhedonia, e.g., a SHAPS score of less than 38.
The secondary objectives are: • i. […] To investigate the effect of aticaprant versus placebo on depression related anhedonia as assessed by the SHAPS. • iv.

[3] = Treatment Period, Full Safety Analysis Set, aticaprant 10 mg (N = 85)
[4] = fITT Analysis Set, Treatment Week 5
[5] = number of subjects, eITT Analysis Set, Treatment Baseline, N 60
[6] = number of subjects, eITT Analysis Set, Treatment Week 6, N 59
[7] = number of subjects, fITT Analysis Set, Baseline/Day 22 (before treatment), N 83
[8] = number of subjects, fITT Analysis Set, Treatment Baseline, N 83

Cc1cc(C)cc(C2CCCN2Cc2ccc(Oc3ccc(C(N)=O)cc3F)cc2)c1 (stereo not drawn) [aticaprant, 3-fluoro-4-4-2-(3,5-dimethylphenyl) pyrrolidin-1-yl-methylphenoxybenzamide]
Subjects with 1 or more serious TEAE (subjects with MDD [1]; [3]): 0 n | Subjects with TEAE leading to death (subjects with MDD [1]; [3]): 0 n | TEAE of Special Interest: Abdominal Pain Upper (subjects with MDD [1]; [3]): 0 n | patients who experienced acute cholecystitis (subjects with MDD [1]; treatment period): 0 patients | subjects who experienced TEAEs of special interest (subjects with MDD [1]; treatment period, 13/85): 15.3% | subjects who discontinued due to treatment-emergent adverse events (subjects with MDD [1]; treatment period, due to diarrhea, nausea, vomiting and headache): 1 subject | subjects with TEAE diarrhea (subjects with MDD [1]; treatment period, full safety analysis set, 7/85): 8.2% | subjects with TEAE headache (subjects with MDD [1]; treatment period, full safety analysis set, 10/85): 11.8% | subjects who experienced at least one TEAE (subjects with MDD [1]; treatment period, full safety analysis set, 40/85): 47.1% | SHAPS Total Score Change from Baseline LSMean Difference (SE) Treatment-Placebo (subjects with MDD [2]; eITT Analysis Set, Treatment Week 1): −0.8 | SHAPS Total Score Change from Baseline LSMean Difference (SE) Treatment-Placebo (subjects with MDD [2]; eITT Analysis Set, Treatment Week 3): −1.4 | SHAPS Total Score Change from Baseline LSMean Difference (SE) Treatment-Placebo (subjects with MDD [2]; eITT Analysis Set, Treatment Week 4): −1.4 | SHAPS Total Score Change from Baseline LSMean Difference (SE) Treatment-Placebo (subjects with MDD [2]; eITT Analysis Set, Treatment Week 5): −0.5 | SHAPS Total Score Change from Baseline LSMean Difference (SE) Treatment-Placebo (subjects with MDD [2]; eITT Analysis Set, Treatment Week 6): −0.7 | SHAPS Total Score Effect Size (subjects with MDD [2]; eITT Analysis Set, Treatment Week 6, negative favors aticaprant): −0.07 | SHAPS total score: mean change from treatment baseline (SD) (subjects with MDD [2]; eITT, Treatment Week 6): −4.6 (6.23) | SHAPS total score: observed effect size (subjects with MDD [2]; eITT, Treatment Week 6): 0.07 | Frequency of Subjects: No Anhedonia (SHAPS Total Score < 20) (subjects with MDD [2]; fITT Analysis Set, Baseline/Day 22 (before treatment), N 83): 1.2% | Frequency of Subjects: No Anhedonia (SHAPS Total Score < 20) (subjects with MDD [2]; fITT Analysis Set, Treatment Baseline, N 83 (Table 64)): 1.2% | SHAPS Total Score Change from Baseline LSMean Difference (SE) Treatment-Placebo (subjects with MDD [2]; fITT Analysis Set, Treatment Week 1): −1.0 (0.72) | SHAPS Total Score Change from Baseline LSMean Difference (SE) Treatment-Placebo (subjects with MDD [2]; fITT Analysis Set, Treatment Week 3): −1.4 (0.73) | SHAPS Total Score Change from Baseline LSMean Difference (SE) Treatment-Placebo (subjects with MDD [2]; fITT Analysis Set, Treatment Week 4): −1.6 (0.73) | SHAPS Total Score Mean Change from Baseline (SD) (subjects with MDD [2]; [4]): −4.3 (5.70) | SHAPS Total Score Change from Baseline LSMean Difference (SE) Treatment-Placebo (subjects with MDD [2]; [4]): −0.8 (0.73) | SHAPS Total Score Change from Baseline LSMean Difference (SE) Treatment-Placebo (subjects with MDD [2]; fITT Analysis Set, Treatment Week 6): −0.8 (0.73) | Frequency of Subjects: High Level of Anhedonia (SHAPS Total Score >= 38) (subjects with MDD [2]; [5]): 26 | Frequency of Subjects: Low Level of Anhedonia Score < 20) Total Score < 38) (subjects with MDD [2]; [5]): 34 | Frequency of Subjects: No Anhedonia (SHAPS Total) (subjects with MDD [2]; [5]): 0 | Frequency of Subjects: High Level of Anhedonia (SHAPS Total Score >= 38) (subjects with MDD [2]; [6]): 8 | Frequency of Subjects: Low Level of Anhedonia Score < 20) Total Score < 38) (subjects with MDD [2]; [6]): 48 | Frequency of Subjects: No Anhedonia (SHAPS Total) (subjects with MDD [2]; [6]): 3 | Frequency of Subjects: Anhedonia (SHAPS Total Score >= 20) (subjects with MDD [2]; [7]): 82 | Frequency of Subjects: No Anhedonia (SHAPS Total Score < 20) (subjects with MDD [2]; [7]): 1 | Frequency of Subjects: High Level of Anhedonia (SHAPS Total Score >= 38) (subjects with MDD [2]; [8]): 30 | Frequency of Subjects: Low Level of Anhedonia (20 >= SHAPS Total Score < 38) (subjects with MDD [2]; [8]): 52 | Frequency of Subjects: No Anhedonia (SHAPS Total Score < 20) (subjects with MDD [2]; number of subjects, fITT Analysis Set, Treatment Baseline, N 83 (Table 64)): 1

Reference: patent US12171743B2, “Forms of aticaprant” (Janssen Pharmaceuticals, Inc., priority 2022, dated 2024)
